Data taken from PubChem BioAssay (NCI).
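Test compounds were applied to cells in 96-well plates for 48 hours at 5 doses. GI50: concentration for 50% inhibition of growth. The concentration for full growth arrest is given as TGI.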

How the values were obtained:
Experiment in all cases: NCI tumour cell line growth inhibition, 48 h
ACHN renal = system: ACHN renal
CAKI-1 renal = system: CAKI-1 renal
K-562 leukemia = system: K-562 leukemia
MOLT-4 leukemia = system: MOLT-4 leukemia
NCI-H460 lung = system: NCI-H460 lung
SF-295 CNS = system: SF-295 CNS
SF-539 CNS = system: SF-539 CNS
SNB-75 CNS = system: SNB-75 CNS
U251 CNS = system: U251 CNS
OVCAR-5 ovarian = system: OVCAR-5 ovarian

| Structure (SMILES) | TGI (ACHN renal) [µM] | TGI (CAKI-1 renal) [µM] | TGI (K-562 leukemia) [µM] | TGI (MOLT-4 leukemia) [µM] | TGI (NCI-H460 lung) [µM] | TGI (SF-295 CNS) [µM] | TGI (SF-539 CNS) [µM] | TGI (SNB-75 CNS) [µM] | TGI (U251 CNS) [µM] | GI50 (ACHN renal) [µM] | GI50 (CAKI-1 renal) [µM] | GI50 (K-562 leukemia) [µM] | GI50 (MOLT-4 leukemia) [µM] | GI50 (NCI-H460 lung) [µM] | GI50 (OVCAR-5 ovarian) [µM] | TGI (OVCAR-5 ovarian) [µM] | GI50 (SF-295 CNS) [µM] | GI50 (SF-539 CNS) [µM] | GI50 (SNB-75 CNS) [µM] | GI50 (U251 CNS) [µM] |
| --- | --- | --- | --- | --- | --- | --- | --- | --- | --- | --- | --- | --- | --- | --- | --- | --- | --- | --- | --- | --- |
| CC(C)c1[nH]nc(C(N)=O)c1N=NN(C)C | > 100 | 65.4 | > 100 | > 100 | > 100 | > 100 | > 100 | > 100 | > 100 |  |  |  |  |  |  |  |  |  |  |  |
| CC(=O)Nc1ccc2c(c1)C(c1ccccc1Cl)=Nc1c(n[nH]c1C)N2 | > 25 | > 22.5 | > 25 | > 25 | > 25 | > 25 | 12.5 | 6.24 | > 25 | 6.19 | 2.84 | 17.3 | 9.75 | 1.85 | 24.6 | > 25 | 8.22 | 0.999 | 0.732 | 1.1 |
| CCOC(=O)c1cc(C(=O)c2cc(OC)c(OC)c(OC)c2)n2ncccc12 | > 100 | > 100 | > 100 | > 100 | > 100 | 13.9 | 2.28 | 42.4 | 37.1 | 1.34 | 0.374 | 0.124 | 0.575 | 0.335 | 2.72 | > 100 | 0.219 | 0.292 | 0.175 | 0.444 |
| COc1ccc(C/C(=N/O)C(=O)NCCc2cc(Br)c(OCCCN(C)C)c(Br)c2)cc1Br | 30 | 69.4 |  |  | 33.4 | 34.7 | 29.6 | 55 | 32.8 |  |  |  |  |  |  | 49.2 |  |  |  |  |
| Cn1c2c(c3ccccc31)CCN(CCCCN1CCCCC1)C2=O | > 100 | > 100 | > 100 | > 100 | > 100 | > 100 | > 100 |  | > 100 |  |  |  |  |  |  | > 100 |  |  |  |  |
| CC1=CC(=O)C2=C(C)CCC3C(C)C(=O)OC3C12 (stereo unspecified) | > 100 | > 100 |  | > 100 | > 100 | > 100 | > 100 |  | > 100 |  |  |  |  |  |  | > 100 |  |  |  |  |
| N#Cc1c(-c2ccc(Cl)c(Cl)c2)c(-c2ccc(Cl)c(Cl)c2)nn(CC(=O)O)c1=O | > 100 | > 100 | > 100 | > 100 | > 100 | > 100 |  | > 100 | > 100 |  |  |  |  |  |  | > 100 |  |  |  |  |
| Cn1cc(C(=O)c2ccccc2)c2ccccc2c1=O | > 100 | > 100 |  | > 100 | > 100 | > 100 | > 100 | > 100 |  |  |  |  |  |  |  |  |  |  |  |  |
| COc1ccc(NC(=O)C(=O)c2c(O)c3ccc(O)cc3oc2=O)c([N+](=O)[O-])c1 | > 100 | > 100 | > 100 | > 100 | > 100 | > 100 | > 100 | > 100 |  |  |  |  |  |  |  | > 100 |  |  |  |  |
| COc1ccc(C(c2cc(OC)c(OC)c(OC)c2)n2ccnc2)cc1O (stereo unspecified) | > 100 | > 100 | > 100 | > 100 | > 100 |  | 0.552 |  | > 100 | 0.693 | 0.68 | 0.225 | 0.565 | 0.377 | 0.648 | > 100 |  | 0.217 |  | 0.391 |
| O=C(Nc1ccc2[nH]nc(-c3ccncc3)c2c1)[C@@H]1CCN(CC(=O)N2CCN(c3ccc(-c4ncccn4)cc3)CC2)C1 | > 100 |  | > 73.2 | > 80.6 | > 100 | > 100 | 31.3 | > 90.8 | 18.9 | 2.08 |  | 1.96 | 5.22 | > 100 |  |  | > 100 | 5.1 | 18.2 | 0.613 |
| Cc1nc(-n2nc(-c3ccccc3)cc2-c2ccccc2)sc1C(=O)/C=C/c1ccc(/C=C/C(=O)c2sc(-n3nc(-c4ccccc4)cc3-c3ccccc3)nc2C)cc1 | 40.2 | 51.6 | > 100 | 68.6 | 95.7 | 51.8 | 33.7 |  | 34.3 |  |  |  |  |  |  | 57.5 |  |  |  |  |
| CCCCCCCCCCCCOC1C(CNC(=O)C2OC3OC(C)(C)OC3C2NC(=O)Nc2ccc(CC(=O)OC)cc2)OC2OC(C)(C)OC21 (stereo unspecified) | > 100 | > 100 |  | > 100 | > 100 | > 49.5 | > 100 | > 100 | > 100 | > 100 | 47 |  |  | > 100 | > 100 | > 100 | > 34.8 | > 100 | > 100 | 18.3 |
| COC(=O)C(C(=O)C(=O)Nc1c(C)cccc1C)c1cnc2ccccc2n1 (stereo unspecified) | > 100 | > 100 | > 100 | > 100 | > 100 | > 100 |  | > 100 | > 100 |  |  |  |  |  |  | > 100 |  |  |  |  |
| Cc1cc(O)c(=O)cc2c1C[C@H]1CC(C)(C)/C=C/C[C@]3(C)Oc4cc(=O)c(O)cc(C)c4C[C@H]3C[C@H](O)[C@@]1(C)O2 | 14.5 |  |  |  | 10.3 |  | 58.6 | 42 |  | < 0.01 | 0.0225 |  |  | < 0.01 | 0.0434 | > 100 |  | 0.0332 | 0.0262 |  |
| c1ccc2sc(SCCSc3nc4ccccc4s3)nc2c1 | > 100 | > 100 | > 100 |  | > 100 | > 100 |  | > 100 | > 100 |  |  |  |  |  |  | > 100 |  |  |  |  |
| c1cc(NNc2cccc(-c3nn[nH]n3)c2)cc(-c2nn[nH]n2)c1 | > 100 | > 100 | > 100 |  | > 100 | > 100 | > 100 | > 100 | > 100 |  |  |  |  |  |  | > 100 |  |  |  |  |
| O=C(CC(Cl)=C(Cl)Cl)Nc1ccccc1 | > 100 |  |  | > 100 | > 100 |  | > 100 |  | > 100 | > 100 |  |  | > 100 | > 100 | > 100 | > 100 |  | > 100 |  | > 100 |
